Data as given in publication PMC10001950 (International Journal of Molecular Sciences, 2023).

Target: BoNT/A LC (Clostridium botulinum, UniProt P0DPI0)
Assay: biochemical
Type: biochemical

BoNT/A LC, sequence (P0DPI0 2-448 limits assumed): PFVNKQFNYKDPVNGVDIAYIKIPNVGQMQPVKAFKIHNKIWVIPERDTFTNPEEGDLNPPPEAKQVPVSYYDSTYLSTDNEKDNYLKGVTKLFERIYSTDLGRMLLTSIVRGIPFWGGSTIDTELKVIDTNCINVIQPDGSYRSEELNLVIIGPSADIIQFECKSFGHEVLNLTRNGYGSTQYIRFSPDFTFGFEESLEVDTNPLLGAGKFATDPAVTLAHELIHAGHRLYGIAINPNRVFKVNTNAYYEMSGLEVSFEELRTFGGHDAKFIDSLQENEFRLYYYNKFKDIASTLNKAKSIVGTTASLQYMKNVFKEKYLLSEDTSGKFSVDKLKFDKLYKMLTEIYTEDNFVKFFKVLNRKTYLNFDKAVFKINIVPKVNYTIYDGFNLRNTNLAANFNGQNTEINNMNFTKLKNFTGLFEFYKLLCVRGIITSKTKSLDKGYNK

Row | Compound | IC50 [nM] | further results
1 | COc1ccc2c(c1)N(Cc1cc(=O)n3cccc(O)c3n1)CC2 [Compound 51, 9-Hydroxy-2-((6-methoxyindolin-1-yl)methyl)-4H-pyrido [1,2-a]pyrimidin-4-one] | > 64000 | 
2 | O=c1cc(CN2Cc3ccc(-c4ccccc4)cc3C2)nc2c(O)cccn12 [Compound 45, 9-Hydroxy-2-((5-phenylisoindolin-2-yl)methyl)-4H-pyrido [1,2-a]pyrimidin-4-one] | 700 ± 100 | 
3 | COC(=O)c1ccc(CNCc2cc(=O)n3cccc(O)c3n2)cc1 [Compound 25, Methyl 4-((((9-hydroxy-4-oxo-4H-pyrido [1,2-a]pyrimidin-2-yl)methyl)amino)methyl) benzoate] | > 64000 | 
4 | COC(=O)c1ccc2c(c1)CCN2Cc1cc(=O)n2cccc(O)c2n1 [Compound 52, Methyl1-((9-hydroxy-4-oxo-4H-pyrido [1,2-a]pyrimidin-2-yl)methyl)indoline-5-carboxylate] | 1200 ± 700 | 
5 | CN(Cc1ccc(-c2ccccc2)cc1)Cc1cc(=O)n2cccc(O)c2n1 [Compound 28, 2-((([1,1′-biphenyl]-4-ylmethyl)(methyl)amino)methyl)-9-hydroxy-4H-pyrido [1,2-a]pyrimidin-4-one] | 12000 ± 200 | 
6 | Cc1cccc2c1N(Cc1cc(=O)n3cccc(O)c3n1)CC2 [Compound 50, 9-Hydroxy-2-((7-methylindolin-1-yl)methyl)-4H-pyrido [1,2-a]pyrimidin-4-one] | 24000 ± 14000 | 
7 | CC(O)c1cc2n(n1)CCN(Cc1cc(=O)n3cccc(O)c3n1)C2 (centres unmarked) [Compound 4] | 7000 ± 1000 | 
8 | O=c1cc(CN2CCc3ccc(Br)cc32)nc2c(O)cccn12 [Compound 49, 2-((6-Bromoindolin-1-yl)methyl)-9-hydroxy-4H-pyrido [1,2-a]pyrimidin-4-one] | 700 ± 50 | 
9 | O=c1cc(CN2CCc3cc(Br)ccc32)nc2c(O)cccn12 [Compound 48, 2-((5-Bromoindolin-1-yl)methyl)-9-hydroxy-4H-pyrido [1,2-a]pyrimidin-4-one] | 700 ± 100 | 
10 | 2-(((4-Chlorobenzyl)amino)methyl)-4H-pyrido [1,2-a]pyrimidin-4-one [Compound 10] |  | inhibitory activity against BoNT/A LC (in words): complete ablation of inhibitory activity
11 | COc1ccc(CNCc2cc(=O)n3cccc(O)c3n2)cc1 [Compound 21, 9-Hydroxy-2-(((4-methoxybenzyl)amino)methyl)-4H-pyrido [1,2-a]pyrimidin-4-one] | 1900 ± 200 | 
12 | Oc1cccc2ccc(CNCc3ccccc3)nc12 [Compound 14, 2-((Benzylamino)methyl)quinolin-8-ol] |  | decrease in inhibition: 15 fold
13 | O=c1cc(COCc2ccccc2)nc2c(O)cccn12 [Compound 30, 2-((Benzyloxy)methyl)-9-hydroxy-4H-pyrido [1,2-a]pyrimidin-4-one] | 2500 ± 300 | 
14 | O=c1cc(COCc2ccc(F)cc2)nc2c(O)cccn12 [Compound 33, 2-(((4-Fluorobenzyl)oxy)methyl)-9-hydroxy-4H-pyrido [1,2-a]pyrimidin-4-one] | 15000 ± 1000 | 
15 | O=c1cc(COCc2cccc([N+](=O)[O-])c2)nc2c(O)cccn12 [Compound 40, 9-Hydroxy-2-(((3-nitrobenzyl)oxy)methyl)-4H-pyrido [1,2-a]pyrimidin-4-one] | 9700 ± 800 | 
16 | O=c1cc(CN2CCc3ccc(-c4ccccc4)cc32)nc2c(O)cccn12 [Compound 56, 9-Hydroxy-2-((6-phenylindolin-1-yl)methyl)-4H-pyrido [1,2-a]pyrimidin-4-one] | 600 ± 100 | 
17 | Cc1cccc(CNCc2cc(=O)n3cccc(O)c3n2)c1 [Compound 22, 9-Hydroxy-2-(((3-methylbenzyl)amino)methyl)-4H-pyrido [1,2-a]pyrimidin-4-one] | 500 ± 100 | 

Row | Compound | IC50 [nM] | further results
18 | Cc1ccc(CNCc2cc(=O)n3cccc(O)c3n2)cc1 [Compound 23, 9-Hydroxy-2-(((4-methylbenzyl)amino)methyl)-4H-pyrido [1,2-a]pyrimidin-4-one] | 1400 ± 900 | 
19 | CCOc1cccn2c(=O)cc(CNCc3ccccc3)nc12 [Compound 11, 2-((Benzylamino)methyl)-9-ethoxy-4H-pyrido [1,2-a]pyrimidin-4-one] |  | inhibitory activity against BoNT/A LC (in words): had a similar effect
20 | O=c1cc(CNCCc2ccccc2)nc2c(O)cccn12 [Compound 29, 9-Hydroxy-2-((phenethylamino)methyl)-4H-pyrido [1,2-a]pyrimidin-4-one] | 10000 ± 1000 | 
21 | CN(C)Cc1cc(=O)n2cccc(O)c2n1 [Compound 15, 2-((Dimethylamino)methyl)-9-hydroxy-4H-pyrido [1,2-a]pyrimidin-4-one] | > 64000 | 
22 | O=c1cc(CNCc2cccc(F)c2)nc2c(O)cccn12 [Compound 16, 2-(((3-Fluorobenzyl)amino)methyl)-9-hydroxy-4H-pyrido [1,2-a]pyrimidin-4-one] | 600 ± 100 | 
23 | COc1cc(COCc2cc(=O)n3cccc(O)c3n2)cc(OC)c1 [Compound 41, 2-(((3,5-Dimethoxybenzyl)oxy)methyl)-9-hydroxy-4H-pyrido [1,2-a]pyrimidin-4-one] | 5200 ± 200 | 
24 | Cc1ccc(COCc2cc(=O)n3cccc(O)c3n2)cc1 [Compound 39, 9-Hydroxy-2-(((4-methylbenzyl)oxy)methyl)-4H-pyrido [1,2-a]pyrimidin-4-one] | 9100 ± 500 | 
25 | O=c1cc(CNCc2ccc(Cl)cc2)nc2c(O)cccn12 [Compound 19, 2-(((4-Chlorobenzyl)amino)methyl)-9-hydroxy-4H-pyrido [1,2-a]pyrimidin-4-one] | 1100 ± 100 | 
26 | CCc1cc(=O)n2cccc(O)c2n1 [Compound 6, 2-Ethyl-9-hydroxy-4H-pyrido [1,2-a]pyrimidin-4-one] |  | inhibitory activity against BoNT/A LC (in words): a decrease in inhibitory potency
27 | O=c1cc(COCc2ccccc2Cl)nc2c(O)cccn12 [Compound 34, 2-(((2-Chlorobenzyl)oxy)methyl)-9-hydroxy-4H-pyrido [1,2-a]pyrimidin-4-one] | 9000 ± 2000 | 
28 | COc1cccc(CNCc2cc(=O)n3cccc(O)c3n2)c1 [Compound 20, 9-Hydroxy-2-(((3-methoxybenzyl)amino)methyl)-4H-pyrido [1,2-a]pyrimidin-4-one] | 490 ± 90 | 
29 | O=c1cc(CN2Cc3ccc(Cl)cc3C2)nc2c(O)cccn12 [Compound 43, 2-((5-Chloroisoindolin-2-yl)methyl)-9-hydroxy-4H-pyrido [1,2-a]pyrimidin-4-one] | 500 ± 200 | 
30 | O=c1cc(CNCc2ccc(F)cc2)nc2c(O)cccn12 [Compound 17, 2-(((4-Fluorobenzyl)amino)methyl)-9-hydroxy-4H-pyrido [1,2-a]pyrimidin-4-one] | 1200 ± 200 | 
31 | O=c1cc(CN2CCc3cc(-c4ccccc4)ccc32)nc2c(O)cccn12 [Compound 55, 9-Hydroxy-2-((5-phenylindolin-1-yl)methyl)-4H-pyrido [1,2-a]pyrimidin-4-one] | 900 ± 300 | 
32 | O=c1cc(COCc2cccc(O)c2)nc2c(O)cccn12 [Compound 37, 9-Hydroxy-2-(((3-hydroxybenzyl)oxy)methyl)-4H-pyrido [1,2-a]pyrimidin-4-one] | 26000 ± 2000 | 
33 | COC(=O)c1ccc2c(c1)N(Cc1cc(=O)n3cccc(O)c3n1)CC2 [Compound 53, Methyl-1-((9-hydroxy-4-oxo-4H-pyrido [1,2-a]pyrimidin-2-yl)methyl)indoline-6-carboxylate] | 1100 ± 100 | 
34 | O=c1cc(CN2Cc3ccccc3C2)nc2c(O)cccn12 [Compound 42, 9-Hydroxy-2-(isoindolin-2-ylmethyl)-4H-pyrido [1,2-a]pyrimidin-4-one] | 1200 ± 100 | potency compared to 2 (in words): equipotent
